Broadly, the log P is the decadic logarithm of the partition coefficient of the neutral form, usually between octanol and water. Higher therefore signals a more lipophilic compound.

Data set [1] in a line: logP determination by HPLC on a reversed-phase column (C18), EEC Directive 79/831 Annex V.A8. In kind it is physicochemical. Conditions: for log P: HPLC-MS, reversed-phase column (C18).
The subject of data set [2] is Ctenocephalides felis. Description: Ctenocephalides felis - in vitro contact tests with adult cat fleas. In kind it is in vivo. Conditions: application rate 5 μg/cm^2 (=500 g/ha), after 48 h (dead or moribund). In a few lines: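 Acetone solution coated on test-tube inner walls (900 ppm gives 5 μg/cm^2). After drying, 5-10 adult cat fleas added and kept horizontal at room temperature and ambient humidity. At 48 h fleas knocked down; motionless or uncoordinated ones counted dead/moribund, giving % efficacy.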

Data set [3] concerns Amblyomma hebraeum. Put plainly: Amblyomma hebraeum test (tick nymphs, immersion). In kind it is in vivo. The note with it: application rate 100 ppm; tick nymphs immersed for one minute; kill after 42 days. As for the experimental part:
(§1) Solvent: dimethyl sulphoxide
To produce an appropriate active ingredient formulation, 10 mg of active ingredient are mixed with 0.5 ml of dimethyl sulphoxide, and the concentrate is diluted with water to the desired concentration.
Tick nymphs (Amblyomma hebraeum) are placed into perforated plastic beakers and immersed in the desired concentration for one minute. The ticks are transferred on filter paper into a Petri dish and stored in a climate-controlled cabinet.
After 42 days, the kill in % is determined. 100% means that all of the ticks have been killed; 0% means that none of the ticks have been killed.

Data set [4] deals with Boophilus microplus. Put plainly: Boophilus microplus - injection test. In kind it is in vivo. The note with it: application rate 20 μg/animal; injected into engorged adult female ticks; laying of fertile eggs, after 7 days. The gist of the method:
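Engorged adult female ticks, five per dose, were injected in the abdomen with 1 μl of active ingredient diluted in dimethyl sulphoxide. Animals were kept in dishes under climate control, and egg fertility was assessed after 7 days.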

In data set [5] the test system is Boophilus microplus Parkhurst strain, SP-resistant. Put plainly: Boophilus microplus - dip test. In kind it is in vivo. The note with it: application rate 100 ppm; dip of engorged adult female ticks; laying of fertile eggs, after 7 days. As for the experimental part: Boophilus microplus—Dip Test
Test animals: cattle ticks (Boophilus microplus) Parkhurst strain, SP-resistant
as §1
10 mg of active ingredient are dissolved in 0.5 ml of dimethyl sulphoxide. For the purpose of producing a suitable formulation, the active ingredient solution is diluted with water to the concentration desired in each case.
This active ingredient formulation is pipetted into tubes. 8-10 adult engorged female cattle ticks (Boophilus microplus) are transferred into a further tube with holes. The tube is immersed into the active ingredient formulation, and all the ticks are completely wetted. After the liquid has run out, the ticks are transferred on filter discs into plastic dishes and stored in a climate-controlled room.
Efficacy is assessed after 7 days by laying of fertile eggs. Eggs which are not visibly fertile are stored in a climate-controlled cabinet until the larvae hatch after about 42 days. An efficacy of 100% means that none of the ticks has laid any fertile eggs; 0% means that all the eggs are fertile.

The subject of data set [6] is Ctenocephalides felis. Put plainly: Ctenocephalides felis - oral test. The note with it: application rate 100 ppm in citrated cattle blood; adult fleas; kill after 2 days. In kind it is in vivo. The gist of the method:
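About 20 unfed adult cat fleas fed through a parafilm membrane on citrated cattle blood containing compound, dosed from a DMSO stock. Kill in % scored after 2 days; 100% means all fleas dead.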

The test system of data set [7] is Lucilia cuprina. Description: Lucilia cuprina test. In kind it is in vivo. The note with it: application rate 100 ppm; L1 larvae in minced horsemeat; kill after 2 days. The gist of the method: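 About 20 L1 larvae placed on minced horsemeat treated with compound, formulated in DMSO and diluted with water to test concentration. Kill in % scored after 2 days (100% = all larvae dead, 0% = none).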

Data set [8] deals with Musca domestica. Put plainly: Musca domestica test. In kind it is in vivo. The note with it: application rate 100 ppm; adult houseflies; kill after 2 days. In a few lines:
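Compound in DMSO, diluted with water, applied to a sugar-solution sponge; vessels hold 10 adult houseflies. Percent mortality scored after 2 days.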

On to `Cc1cc(C(F)(C(F)(F)F)C(F)(F)F)cc(C(F)(F)F)c1-n1cc(-c2cnc(Cl)c(C(=O)N(C)C3CC3)c2)cn1` [I-T3-107], for which, in data set [1], the “log P” value is given as 4.5. The efficacy in data set [2], in data set [3], in data set [4], in data set [5], in data set [6] and in data set [7] was 100% throughout. The same molecule had an efficacy in data set [8] of 100%.
As to `Cc1cc(C(F)(C(F)(F)F)C(F)(F)F)cc(C)c1-n1cc(-c2cnc(Cl)c(C(=O)N(C)C3CC3)c2)cn1` [I-T3-101], the log partition coefficient (log P) in data set [1] is on record as 4.4. Also, the efficacy was 100% in data set [2]; 95% in data set [3]; 100% in data set [4]; 100% in data set [5]; 100% in data set [6]; 100% in data set [7]. The molecule also returned an efficacy in data set [8] of 100%.
Take `CN(C(=O)c1cc(-c2cnn(-c3c(Cl)cc(C(F)(C(F)(F)F)C(F)(F)F)cc3Cl)c2)cnc1Cl)C1(C#N)CC1` [I-T3-102]: the “log P” value in data set [1] is 4.3. Further, the efficacy in data set [2] was found to be 100%; in data set [3], 90%; in data set [4], 100%; in data set [5] it was 100%; in data set [6], 100%; in data set [7], 100%. Further, the efficacy in data set [8] was found to be 100%.
For the molecule `Cc1cc(C(F)(C(F)(F)F)C(F)(F)F)cc(C)c1-n1cc(-c2cnc(Cl)c(C(=O)N(C)C3(C#N)CC3)c2)cn1` [I-T3-103], the “log P” value in data set [1] is 4.3. The efficacy in data set [2] is recorded as 100%; in data set [3], 90%; in data set [4], 100%; in data set [5] it was 100%; in data set [6], 100%; in data set [7] it was 100%. The molecule also yielded an efficacy in data set [8] of 100%.
In the case of `Cc1cc(C(F)(C(F)(F)F)C(F)(F)F)cc(C(F)(F)F)c1-n1cc(-c2cnc(Cl)c(C(=O)N(C)C3(C#N)CC3)c2)cn1` [I-T3-111], the “log P” value in data set [1] turned out to be 4.4. The efficacy in data set [2] is 100%; in data set [3] it was 80%; in data set [4] it was 100%; in data set [5], 98%; in data set [6], 100%; in data set [7], 100%. This molecule returned an efficacy in data set [8] of 100%.
For `Cc1cc(C(F)(C(F)(F)F)C(F)(F)F)cc(Br)c1-n1cc(-c2ccc(Cl)c(C(=O)NC3CC3)c2)cn1` [I-T3-86], in data set [1] (HPLC-MS method a), Table I-T3), the “logP^a)” value is on record as 4.5. Further, the efficacy in data set [2], in data set [3], in data set [4], in data set [5], in data set [6] and in data set [7] was 100% in each case. In addition, the efficacy in data set [8] worked out at 100%.
For `Cc1ncc(-c2cnn(-c3c(Cl)cc(C(F)(C(F)(F)F)C(F)(F)F)cc3C(F)(F)F)c2)cc1C(=O)NC1CC1` [I-T3-124], in data set [1], the lipophilicity (log P) worked out at 3.5. In addition, the efficacy in data set [2], in data set [3], in data set [4], in data set [5], in data set [6] and in data set [7] was 100% in each case. Also, the efficacy in data set [8] stood at 100%.
Take `N#CC1(NC(=O)c2cc(-c3cnn(-c4c(Cl)cc(C(F)(F)F)cc4Cl)c3)cnc2Cl)CC1` [I-T3-95]: the “log P” value in data set [1] turned out to be 3.1. For the same molecule, the efficacy in data set [2], in data set [3], in data set [4], in data set [5] and in data set [6] was 100% each time.

The values are drawn from patent US9758485B2, “Compounds for controlling arthropods” (priority 2013, dated 2017).
